# System: Mycobacterium tuberculosis
# Experiment: Antitubercular activity against multidrug resistant Mycobacterium tuberculosis
# Assay type: functional
structure (smiles),measurement,value
O=C(N/N=C/c1ccc([N+](=O)[O-])cc1)[C@H]1CSC(c2ccc(F)cc2)N1 (stereo partly specified),MIC,1.33 µM

# Source: ChEMBL document CHEMBL4406816, “Role of sulphur-heterocycles in medicinal chemistry: An update” (Eur J Med Chem, 2019)
